Results as given in patent US20100183527A1, “Cosmetic Compositions Comprising Sclareolide and Hesperidin Methyl Chalcone” (COGNIS IP MANAGEMENT GMBH, priority 2007, published 2010).

Assays:
Type in all cases: cell-based
[1] = system: Melanocytes (B16 cell line); experiment: Melanogenesis stimulation assay, level of melanin (optical density at 475 nm); conditions: 3 days incubation, mean +/- SEM
Method: (§1) Melanocytes (B16 cell line) were inoculated in standard medium of cell culture with foetal calf serum (FCS). After an incubation of 3 day at 37° C. and CO2=5%, growth medium was exchanged for standard medium with a range of concentrations for each active ingredient to be tested and a control without ingredient. After an incubation of 3 days, the level of melanin was measured by recording the optical density at 475 nm. After washing the cells by a balanced salt solution, and homogenisation in a solution of 0.1 M NaOH, the number of viable cells was determined by evaluation of the level of cellular proteins (Bradford's method). The results are expressed in % against control (cell culture medium without compound) as a mean+/−SEM (Standard Error of Mean) on 2 or 3 assays, each in triplicate.

[2] = system: Melanocytes (B16 cell line); experiment: Number of viable cells by level of cellular proteins (Bradford's method), Example 1; conditions: 3 days incubation, mean +/- SEM
Method: as §1

[3] = system: Melanocytes (B16 cell line); experiment: Melanogenesis stimulation assay for combination, level of intracellular melanin (optical density at 475 nm); conditions: for rate of melanin: mean +/- SEM
Method: (§2) Melanocytes (B16 cell line) were inoculated in standard medium of cell culture with foetal calf serum (FCS). After an incubation for 3 days at 37° C. and CO2=5%, growth medium was exchanged for standard medium with a range of concentrations for each active ingredient to be tested and a control without ingredient. Combinations of active ingredients were tested on the same cultures, in parallel with active ingredients alone. After an incubation of 3 days, the cells were washed by a balanced salt solution, and homogenised in a solution of 0.1 M NaOH. The number of viable cells was determined by evaluation of the level of cellular proteins (Bradford's method) and the level of intracellular melanin was measured by recording the optical density at 475 nm.
(§3) The results are expressed in % against control (cell culture medium without compound) as a mean+/−SEM (Standard Error of Mean) on 5 assays, each in triplicate.

[4] = system: Melanocytes (B16 cell line); experiment: Number of viable cells by level of cellular proteins (Bradford's method), Example 2 combination; conditions: for Amount of cellular proteins: mean +/- SEM
Method: as §2, §3

[5] = Sclareolide 0.000025 % (w/v) alone
[6] = Sclareolide 0.000050 % (w/v) alone

## CC1(C)CCC[C@]2(C)[C@H]3CC(=O)O[C@]3(C)CC[C@@H]12 [Sclareolide, (3aR,5aS,9aS,9bR)— decahydro-3a,6,6,9a-tetramethyl naphtho(2,1-b)furan-2(1H)-one]
[1]; Dose 0.0003 % (w/v)
  Melanin level: 174 +/− 55 %/control
[1]; Dose 0.001 % (w/v)
  Melanin level: 286 +/− 83 %/control
[2]; Dose 0.0003 % (w/v)
  Protein level (rate of cellular proteins): 89 +/− 11 %/control
[2]; Dose 0.001 % (w/v)
  Protein level (rate of cellular proteins): 83 +/− 17 %/control
[3]; [5]
  rate of melanin: 116 +/− 7 %/control
[3]; [6]
  rate of melanin: 120 +/− 6 %/control
[3]; very low doses (Table 2)
  rate of melanin synthesis / efficacy (in words): increased the rate of melanin synthesis
[4]; [5]
  Amount of cellular proteins: 97 +/− 18 %/control
[4]; [6]
  Amount of cellular proteins: 106 +/− 10 %/control
[4]; concentrations of Table 3, tested separately or mixed
  toxic effects, decrease of amount of cellular proteins (in words): do not show any toxic effects
